The source of these data is patent publication US20140107316A1, “DRUG DELIVERY CONJUGATES CONTAINING UNNATURAL AMINO ACIDS AND METHODS FOR USING” (priority 2012, published 2014).

Data set [1] deals with folate receptor-positive KB cells. The procedure: Inhibition of Cellular DNA Synthesis. The compounds described herein were evaluated using an in vitro cytotoxicity assay that predicts the ability of the drug to inhibit the growth of folate receptor-positive KB cells. The compounds were comprised of folate linked to a respective chemotherapeutic drug, as prepared according to the protocols described herein. The KB cells were exposed for up to 7 h at 37° C. to the indicated concentrations of folate-drug conjugate in the absence or presence of at least a 100-fold excess of folic acid. The cells were then rinsed once with fresh culture medium and incubated in fresh culture medium for 72 hours at 37° C. Cell viability was assessed using a ^3H-thymidine incorporation assay.
(§1) In vitro test against the various cancer cell lines. Cells are heavily seeded in 24-well Falcon plates and allowed to form nearly confluent monolayers overnight. Thirty minutes prior to the addition of the test compound, spent medium is aspirated from all wells and replaced with fresh folate-deficient RPMI medium (FFRPMI). A subset of wells are designated to receive media containing 100 μM folic acid. The cells in the designated wells are used to determine the targeting specificity. […] Following one rinse with 1 mL of fresh FFRPMI containing 10% heat-inactivated fetal calf serum, each well receives 1 mL of medium containing increasing concentrations of test compound (4 wells per sample) in the presence or absence of 100 μM free folic acid as indicated. Treated cells are pulsed for 2 h at 37° C., rinsed 4 times with 0.5 mL of media, and then chased in 1 mL of fresh medium up to 70 h. Spent medium is aspirated from all wells and replaced with fresh medium containing 5 μCi/mL ^3H-thymidine. Following a further 2 h 37° C. incubation, cells are washed 3 times with 0.5 mL of PBS and then treated with 0.5 mL of ice-cold 5% trichloroacetic acid per well. After 15 min, the trichloroacetic acid is aspirated and the cell material solubilized by the addition of 0.5 mL of 0.25 N sodium hydroxide for 15 min. A 450 μL aliquot of each solubilized sample is transferred to a scintillation vial containing 3 mL of Ecolume scintillation cocktail and then counted in a liquid scintillation counter. Final tabulated results are expressed as the percentage of ^3H-thymidine incorporation relative to untreated controls.
(§2) Folate receptor expressing cells. […] EC1456 was evaluated from 0.1-100 nM.

For data set [2], the system named is NCI/ADR-RES-Cl2. Nature of the data set: In vitro test against cancer cell lines, NCI/ADR-RES-Cl2. Type of data set: cell-based, Human. Here is the method:
as §1, with “Following a further 2 h 37° C. incubation, cells are washed 3 times with 0.5 mL of PBS and then treated with 0.5 mL of ice-cold 5% trichloroacetic acid per well. After 15 min, the trichloroacetic acid is aspirated and the cell material solubilized by the addition of 0.5 mL of 0.25 N sodium hydroxide for 15 min.” left out
as §2

The test system of data set [3] is IGROV1. Nature of the data set: In vitro test against cancer cell lines, IGROV1. Type of data set: cell-based, Human. Here is the method:
as §1, with “Following a further 2 h 37° C. incubation, cells are washed 3 times with 0.5 mL of PBS and then treated with 0.5 mL of ice-cold 5% trichloroacetic acid per well. After 15 min, the trichloroacetic acid is aspirated and the cell material solubilized by the addition of 0.5 mL of 0.25 N sodium hydroxide for 15 min.” left out
as §2

Data set [4] deals with MDA-MB-231. Nature of the data set: In vitro test against cancer cell lines, MDA-MB-231. Format: cell-based, Human. The procedure: as §1, with “Following a further 2 h 37° C. incubation, cells are washed 3 times with 0.5 mL of PBS and then treated with 0.5 mL of ice-cold 5% trichloroacetic acid per well. After 15 min, the trichloroacetic acid is aspirated and the cell material solubilized by the addition of 0.5 mL of 0.25 N sodium hydroxide for 15 min.” left out
as §2

The test system of data set [5] is A549. Nature of the data set: In vitro test against cancer cell lines, A549. Type of data set: cell-based, Human. To be noted: A549, FR status −; evaluated from 0.1-100 nM. Here is the method: as §1, with “Following a further 2 h 37° C. incubation, cells are washed 3 times with 0.5 mL of PBS and then treated with 0.5 mL of ice-cold 5% trichloroacetic acid per well. After 15 min, the trichloroacetic acid is aspirated and the cell material solubilized by the addition of 0.5 mL of 0.25 N sodium hydroxide for 15 min.” left out
as §2

The subject of data set [6] is H23. Nature of the data set: In vitro test against cancer cell lines, H23. Format: cell-based, Human. To be noted: H23, FR status −; evaluated from 0.1-100 nM. The procedure:
as §1, with “Following a further 2 h 37° C. incubation, cells are washed 3 times with 0.5 mL of PBS and then treated with 0.5 mL of ice-cold 5% trichloroacetic acid per well. After 15 min, the trichloroacetic acid is aspirated and the cell material solubilized by the addition of 0.5 mL of 0.25 N sodium hydroxide for 15 min.” left out
as §2

Data set [7] relates to HepG2. Nature of the data set: In vitro test against cancer cell lines, HepG2. Format: cell-based, Human. The following applies: HepG2, FR status −; evaluated from 0.1-100 nM. Here is the method:
as §1, with “Following a further 2 h 37° C. incubation, cells are washed 3 times with 0.5 mL of PBS and then treated with 0.5 mL of ice-cold 5% trichloroacetic acid per well. After 15 min, the trichloroacetic acid is aspirated and the cell material solubilized by the addition of 0.5 mL of 0.25 N sodium hydroxide for 15 min.” left out
as §2

Data set [8] concerns AN3CA. Nature of the data set: In vitro test against cancer cell lines, AN3CA. The following applies: FR status −, evaluated from 0.1-100 nM. Format: cell-based, Human. The procedure:
as §1, with “Following a further 2 h 37° C. incubation, cells are washed 3 times with 0.5 mL of PBS and then treated with 0.5 mL of ice-cold 5% trichloroacetic acid per well. After 15 min, the trichloroacetic acid is aspirated and the cell material solubilized by the addition of 0.5 mL of 0.25 N sodium hydroxide for 15 min.” left out
as §2

For data set [9], the system named is LNCaP. Nature of the data set: In vitro test against cancer cell lines, LNCaP. Type of data set: cell-based, Human. The following applies: FR status −, evaluated from 0.1-100 nM, read-out: EC1456 Activity (IC50). The procedure:
as §1, with “Following a further 2 h 37° C. incubation, cells are washed 3 times with 0.5 mL of PBS and then treated with 0.5 mL of ice-cold 5% trichloroacetic acid per well. After 15 min, the trichloroacetic acid is aspirated and the cell material solubilized by the addition of 0.5 mL of 0.25 N sodium hydroxide for 15 min.” left out
as §2

The subject of data set [10] is MDA-MB-231 tumors. Nature of the data set: Established subcutaneous MDA-MB-231 breast cancer xenograft. Type of data set: in vivo, mice. The following applies: three times per week. The text has this:
Inhibition of Tumor Growth in Mice.
Toxicity as Measured by Weight Loss.
Triple negative breast cancer (TNBC) is a subtype characterized by lack of gene expression for estrogen, progesterone and Her2/neu. TNBC is difficult to treat, and its death rate is disproportionately higher than for any other subtype of breast cancer.

A short description of data set [11]: Maximum tolerated dose (MTD). Type of data set: in vivo, female Sprague-Dawley rats. From the text:
Maximum tolerated dose (MTD). […] For Example, EC1456 has a MTD of at least 0.51 μmol/kg and EC0531 has a MTD of 0.33 μmol/kg, […] when administered by i.v., BIW, 2 wks in female Sprague-Dawley rats. Histopathologic changes were not observed with doses of EC1456 at or below the MTD.

The structures appear in SMILES notation. “Also recorded” adds a separate entry of the source. Like-named read-outs stand apart in the source and are kept apart here.

For the compound `CCCC(=O)OCN(C(=O)[C@@H](NC(=O)[C@H]1CCCCN1C)[C@@H](C)CC)[C@H](C[C@@H](OC(C)=O)c1nc(C(=O)N[C@@H](Cc2ccc(O)cc2)C[C@H](C)C(=O)NNC(=O)OCCSSC[C@@H](NC(=O)[C@H](CCC(=O)NC[C@H](O)[C@@H](O)[C@H](O)[C@H](O)CO)NC(=O)[C@@H](CCC(=O)O)NC(=O)[C@H](CCC(=O)NC[C@H](O)[C@@H](O)[C@H](O)[C@H](O)CO)NC(=O)[C@@H](CCC(=O)O)NC(=O)[C@H](CCC(=O)NC[C@H](O)[C@@H](O)[C@H](O)[C@H](O)CO)NC(=O)CC[C@@H](NC(=O)c2ccc(NCc3cnc4nc(N)[nH]c(=O)c4n3)cc2)C(=O)O)C(=O)O)cs1)C(C)C` [EC1456], the “improvement in specificity compared to EC0531” value in data set [1] came out at 4 fold. The “Competable up to 100 nM” value in [1] (KB), in data set [2] (NCI/ADR-RES-Cl2), in data set [3] (IGROV1) and in data set [4] (MDA-MB-231) was “Yes” throughout. In [1] (difference in IC50 between competed and non-competed group), the “In vitro specificity (fold)” value is 944 fold. The “specificity for the folate receptor as determined by folic acid competition” value in data set [1] (difference in IC50 between competed group and non-competed group) is reported as “ca. 1000 fold”. For the same compound, the IC50 came to 1420 nM in data set [1] (read-out: 50% competition, competed group (excess folic acid)); 2.3 nM in data set [1] (read-out: EC1456 Activity (IC50), KB, FR status +++, evaluated from 0.1-100 nM); 1.5 nM in data set [1] (read-out: In vitro IC50); 1.4 nM in data set [2] (NCI/ADR-RES-Cl2, FR status ++, evaluated from 0.1-100 nM, read-out: EC1456 Activity (IC50)); 0.72 nM in data set [3] (IGROV1, FR status +, evaluated from 0.1-100 nM, read-out: EC1456 Activity (IC50)); 0.47 nM in data set [4] (MDA-MB-231, FR status +, evaluated from 0.1-100 nM, read-out: EC1456 Activity (IC50)). Moreover, in data set [9], the IC50 was around 850 nM. Moreover, the “EC1456 Activity (IC50)” value in data set [5], in data set [6], in data set [7] and in data set [8] was “Inactive” in each case. For the same compound, the “weight loss / gross whole animal toxicity (% weight change)” value in [10] (2 μmmol/kg i.v., 2 weeks) is recorded as “did not cause gross whole animal toxicity; also recorded: not accompanied by significant weight loss”. The cures in data set [10] (2 μmmol/kg intravenous, 2 consecutive weeks) is 4 of 5. Further, the Histopathologic changes result in data set [11] (doses at or below the MTD) is listed as “not observed”. In addition, in data set [11] (i.v., BIW, 2 wks), the “improvement in MTD over EC0531” value is 65%. Moreover, the MTD in [11] (rat, in vivo, iv, BIW, 2 wks) is at least 0.51 µmol/kg.
